# Data: patent US20080255181A1, “Methods for treating podocyte-related disorders” (University of Heidelberg, priority 2006, published 2008)
# “Also recorded” adds a separate entry of the source.
# Tests used:
# [1] = tested on: intracellular proteins; assay: Activation of intracellular proteins in podocytes by calcimimetic; format: cell-based, mouse; details: 4 nmol/l
# Description: (§1) A well established cell model of conditionally immortalized murine podocytes was used to determine the impact of calcimimetics on podocyte function. These immortalized podocyte cell lines were generated from the Inmortomouse® (Charles River, Wilmington, Mass., USA) carrying a temperature-sensitive T-antigen as transgene, under the control of an interferon-γ inducible promoter. […]
# (§2) Protein extraction from cultured podocytes and SDS-PAGE were done as previously described (Weins et al., supra). Total and phosphorylated proteins were detected by Western blotting as described previously, using the following primary antibodies: Bad (dilution 1:1000), pBad (1:1000), Bax (1:1000), Bid (1:1000), Bcl-xl (1:500), CREB (1:4000), ERK1/2 (1:4000), pERK 1/2 (1:4000), pJNK (1:1000), p38MAPK (1:500), p90RSK (1:2000) (Cell Signaling Technology, Beverly, Mass., USA), Bcl-2 (1:500), Caveolin-1 (1:500), 3-Actin (1:10000) (Abcam, Cambridge, UK) CaSR 1:100 (Alpha Diagnostics, San Antonio, Tex., USA). […]
# [2] = tested on: PAN-treated rats; assay: Animal model of PAN nephrosis (proteinuria); format: in vivo, rat
# Description: Puromycin aminonucleoside (PAN), which induces oxidant injury in cells via the xanthine oxidase pathway, has been used extensively as a model of podocyte injury. Podocyte injury in this model can be ameliorated by inhibitors of oxidants. Following PAN injection (15 mg/100 g body weight), injury in the rat podocytes is manifest by loss of interdigitating foot processes, detachment from the GBM, pseudocyst formation, reduction in anionic charge, attenuation of the underlying GBM, and associated leakiness of the glomerular filter resulting in proteinuria. The PAN model also progresses to a patchy glomerular scarring process [focal glomerulosclerosis (FSGS)]. FSGS in humans is commonly associated with progression to end-stage renal disease (ESRD) requiring renal replacement therapy. […] Podocytes were stained against WT-1, a specific marker for podocytes and counted under an immunofluorescence microscope.
# Male Sprague-Dawley rats weighing approximately 100 g were administered intraperitoneal PAN (Sigma Company, St. Louis, Mo., USA) at a dose of 15 mg/100 g body weight, or additionally at the same time a single injection of Compound A (doses 2 mg/100 g body weight) 4 hours before, or an equivalent volume of 0.9% saline (0.2-0.4 ml/animal) (N=10-15 animals per group). […] Protein/Creatinin ratio was measured with ADVIA 2400, Bayer Diagnostics. […]
# [3] = tested on: Bcl-xL; assay: Western blotting of Bcl-xL expression in podocytes; format: cell-based, mouse; details: time-dependent, HCl
# Description: as §1, §2
# [4] = tested on: BID; assay: Western blotting of BID in podocytes; format: cell-based, mouse; details: Compound A exposure, HCl
# Description: as §1, §2
# [5] = tested on: p90RSK; assay: Western blotting of p90RSK phosphorylation in podocytes; format: cell-based, mouse; details: 10 nmol/l, HCl
# Description: as §1, §2
# (§3) This CREB activation is able to mediate signals from numerous physiological stimuli, resulting in the regulation of a broad array of cellular responses, such as regulating of apoptosis associated genes. Therefore downstream pro-survival factors were analyzed. […]
# [6] = tested on: podocytes; assay: FACS analysis of PAN-induced apoptosis of podocytes; format: cell-based, mouse; details: PAN 30 μg/ml; for reduction of PAN induced increase in apoptosis rate: Compound A 10 mmol/l as printed, p<0.05; for apoptosis rate of cultured podocytes: baseline less than 20% in controls
# Description: (§4) A well established cell model of conditionally immortalized murine podocytes was used to determine the impact of calcimimetics on podocyte function. These immortalized podocyte cell lines were generated from the Inmortomouse® (Charles River, Wilmington, Mass., USA) carrying a temperature-sensitive T-antigen as transgene, under the control of an interferon-γ inducible promoter. They were maintained cultured as previously described (Weins A et al. (2001) J Cell Biol 155: 393-404; Asanuma K. et al. (2005). J Clin Invest 115: 1188-1198. In brief, the cell line was maintained in RPMI 1640 (PAA Laboratories, Pasching, Austria) supplemented with 10% fetal bovine serum (PAA Laboratories, Pasching, Austria), 100 U/ml penicillin/streptomycin (Biochrom AG, Berlin, Germany) in humidified incubators with air-5% CO2. In order to induce differentiation, podocytes were grown on collagen type I (BD Bioscience, Bedford, Mass., USA) under permissive conditions at 33° C. with IFN-γ (10 U/ml) (Roche, Mannheim, Germany) or under non-permissive conditions at 37° C. without IFN-γ for at least 10 days.
# All cells were treated as described, then washed and trypsinized. All washes and eluted cells were collected, pooled, and centrifuged. After washing cells with Annexin-binding buffer, cells were incubated with FITC-labelled Annexin-V (Molecular Probes) and propidium iodide (Molecular Probes) for 30 min. Annexin-V binds phosphatidylserine, which is translocated to the outer cell membrane during the initial stages of apoptosis. Propidium iodide was also applied to cells in order to distinguish necrosis from apoptosis. Cells were analyzed by flow cytometry (FACScalibur, Becton Dickinson). Apoptosis-associated fluorescence was measured using a log scale. Cells with high propidium iodide content were necrotic and were excluded from the analysis.
# This example summarizes the results of FACS analyses. […] PAN (30 μg/ml) increased apoptosis rate of cultured podocytes to 44 and 78% correspondingly after 48 and 60 hrs of incubation, as compared to a baseline apoptosis rate of less than 20% in respective controls (FIG. 11). Addition of Compound A (10 mmol/l) reduced PAN induced increase in apoptosis rate in three independent experiments by 55 and 60% after 48 and 60 hrs respectively (both p<0.05).
# [7] = tested on: ERK1/2; assay: Western blotting of ERK1/2 phosphorylation in podocytes; format: cell-based, mouse
# Description: as §4
# Protein extraction from cultured podocytes and SDS-PAGE were done as previously described (Weins et al., supra). Total and phosphorylated proteins were detected by Western blotting as described previously, using the following primary antibodies: Bad (dilution 1:1000), pBad (1:1000), Bax (1:1000), Bid (1:1000), Bcl-xl (1:500), CREB (1:4000), ERK1/2 (1:4000), pERK 1/2 (1:4000), pJNK (1:1000), p38MAPK (1:500), p90RSK (1:2000) (Cell Signaling Technology, Beverly, Mass., USA), Bcl-2 (1:500), Caveolin-1 (1:500), 3-Actin (1:10000) (Abcam, Cambridge, UK) CaSR 1:100 (Alpha Diagnostics, San Antonio, Tex., USA). Western blot analysis was carried out according to standard protocols and visualized using enhanced chemiluminescence (ECL) immunoblot detection kits (Amersham Biosciences, Little Chalfont Buckinghamshire, UK).
# It has been established previously that the activation of the CaSR induces a variety of intracellular signalling pathways such as the protein kinase C(PKC) and the MAP kinase pathways.
# In addition, U0126 suppressed the phosphorylation of CREB (FIG. 10). Blockade of MEK1/2 and MAP kinases can not be bypassed via activation of other pathways such as PKC.
# [8] = tested on: podocytes genes; assay: Microarray analysis of Compound A-dependent regulation of podocyte genes; format: cell-based, mouse; details: 10 nmol/l, 12 hrs
# [9] = tested on: JNK; assay: Western blotting of JNK activation in podocytes; format: cell-based, mouse; details: any time-point, HCl
# Description: as §1, §2
# [10] = tested on: p38 MAPK; assay: Western blotting of p38 MAPK phosphorylation in podocytes; format: cell-based, mouse; details: 10 nmol/l, after 5 min and again after 30 and 60 min, HCl
# Description: as §1, §2
# [11] = tested on: BAD; assay: Western blotting of BAD phosphorylation in podocytes; format: cell-based, mouse; details: 10 nmol/l
# Description: as §1, §2
# [12] = tested on: CREB; assay: Western blotting of CREB phosphorylation in podocytes; format: cell-based, mouse
# Description: as §4, §2, §3
# [13] = inhibitor 10 mM as printed, Compound A 10 nmol
smiles,measurement,setting,value
"COc1cccc([C@@H](C)NCCCc2ccccc2Cl)c1.Cl [Compound A, N-(3-[2-chlorophenyl]-propyl)-R-▪-methyl-3-methoxybenzylamine HCl]",activation of intracellular proteins,[1],activation of intracellular proteins was demonstrated
same,proteinuria in group receiving PAN and Compound A,"[2]; male Sprague-Dawley rats, PAN 15 mg/100 g i.p., Compound A 2 mg/100 g body weight single injection, HCl",significant protection; also recorded: successfully impeded; also recorded: prevent the development of proteinuria
same,"proteinuria after a single dose, compared to untreated control rats receiving saline","[2]; rats, after day 6, intraperitoneal",significantly induced
same,Bcl-xl expression,[3],induced in a time-dependent way; also recorded: increased expression
same,BID,[4],not affected; also recorded: not influenced
same,p90RSK phosphorylation,[5],phosphorylated in a similar time pattern as ERK1/2; also recorded: induction
same,PAN induced apoptosis of podocytes (FIG. 11 legend),"[6]; Compound A 10 nmol/l, 48 h and 60 h",prevents
same,reduction of PAN induced increase in apoptosis rate,[6]; 48 hrs,55%
same,reduction of PAN induced increase in apoptosis rate,[6]; 60 hrs,60%
same,phosphorylation of ERK1/2,"[7]; 4 to 50 nmol/l, dose- and time-dependent, HCl",phosphorylation of ERK1/2 occurs; also recorded: time and dose dependent phosphorylation
same,activation of ERK1/2,"[7]; 10 mol/l as printed, not further increased by higher concentrations",strong activation
same,time of first detectable ERK1/2 phosphorylation steps,[7]; Compound A incubation,2 min
same,time of maximal ERK1/2 phosphorylation,[7]; Compound A incubation,10 min
same,CaSR-regulated genes/number of genes analyzed: Adherens junction,[8],11/62
same,CaSR-regulated genes/number of genes analyzed: Adhesion-extracellular matrix,[8],14/84
same,CaSR-regulated genes/number of genes analyzed: Apoptosis,[8],9/72
same,CaSR-regulated genes/number of genes analyzed: Cytokine receptor interactions,[8],29/187
same,CaSR-regulated genes/number of genes analyzed: Focal Adhesions,[8],30/174
same,CaSR-regulated genes/number of genes analyzed: MAPK signaling pathways,[8],30/193
same,CaSR-regulated genes/number of genes analyzed: Nfkb signaling,[8],8/79
same,CaSR-regulated genes/number of genes analyzed: Regulation of actin cytoskeleton,[8],26/171
same,CaSR-regulated genes/number of genes analyzed: TGF beta signaling pathway,[8],9/62
same,CaSR-regulated genes/number of genes analyzed: Toll-like-receptor signaling,[8],10/69
same,CaSR-regulated genes/number of genes analyzed: Wnt signaling pathways,[8],15/116
same,"mRNA expression of pro-apoptotic genes calpain 1, calpain small subunit 1, caspase 7 and caspase 8",[8],down-regulated
same,mRNA expression of pro-survival factor Bcl-2,[8],up-regulated
same,genes significantly regulated out of 15000 genes investigated,[8]; vs untreated cells,10%
same,JNK activation,[9],no activation; also recorded: not activated
same,p38 MAPK phosphorylation,[10],clear biphasic response pattern; also recorded: biphasic phosphorylation
same,amount of non-phosphorylated BAD,[11],decreases
same,amount of phosphorylated BAD,[11]; time-dependent,clearly increases
same,CREB phosphorylation,"[12]; 10 nmol/l, HCl",leads to CREB phosphorylation; also recorded: induction
"N#CC(=C(/N)Sc1ccccc1N)/C(C#N)=C(\N)Sc1ccccc1N [Compound U0126, reference compound]",Compound A-induced phosphorylation of ERK1/2 in presence of MEK1/2 inhibitor,[7]; inhibitor 10 μM,abolish completely
same,calcimimetic-induced phosphorylation of ERK 1/2 in presence of inhibitor (FIG. 10 legend),[7]; [13],strongly inhibits
same,phosphorylation of CREB in presence of MEK1/2 inhibitor,[12]; inhibitor 10 μM,suppressed
same,calcimimetic-induced phosphorylation of CREB in presence of inhibitor (FIG. 10 legend),[12]; [13],strongly inhibits
"CN(C)c1ncnc2c1ncn2[C@@H]1O[C@H](CO)[C@@H](N)[C@H]1O [PAN, puromycin aminonucleoside, reference compound]",apoptosis rate of cultured podocytes,[6]; 48 hrs of incubation,44%
same,apoptosis rate of cultured podocytes,[6]; 60 hrs of incubation,78%
